Measurements taken from BindingDB's records for doi:10.1021/jm8008629 (Wayne State University, 2008).

Assays:
D(3) dopamine receptor = D(3) dopamine receptor (Rattus norvegicus, UniProt P19020); assay: Displacement of [3H]Spiperone from rat dopamine D3 receptor expressed in HEK293 cells
D(2) dopamine receptor = D(2) dopamine receptor (Rattus norvegicus, UniProt P61169); assay: Displacement of [3H]Spiperone from rat dopamine D2L receptor expressed in HEK293 cells
D(2) dopamine receptor, sequence (P61169 whole entry): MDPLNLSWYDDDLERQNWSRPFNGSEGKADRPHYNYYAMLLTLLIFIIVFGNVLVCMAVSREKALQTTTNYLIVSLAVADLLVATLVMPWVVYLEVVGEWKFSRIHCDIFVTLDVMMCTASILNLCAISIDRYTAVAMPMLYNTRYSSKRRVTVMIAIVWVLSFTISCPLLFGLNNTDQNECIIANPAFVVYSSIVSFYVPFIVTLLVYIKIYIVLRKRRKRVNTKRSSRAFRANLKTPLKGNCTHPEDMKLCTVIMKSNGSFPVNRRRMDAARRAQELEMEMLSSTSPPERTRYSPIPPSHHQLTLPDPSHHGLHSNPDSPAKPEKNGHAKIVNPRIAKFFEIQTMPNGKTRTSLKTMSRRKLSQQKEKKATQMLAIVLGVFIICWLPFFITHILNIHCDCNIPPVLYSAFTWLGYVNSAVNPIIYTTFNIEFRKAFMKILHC

D(3) dopamine receptor, sequence (P19020 whole entry): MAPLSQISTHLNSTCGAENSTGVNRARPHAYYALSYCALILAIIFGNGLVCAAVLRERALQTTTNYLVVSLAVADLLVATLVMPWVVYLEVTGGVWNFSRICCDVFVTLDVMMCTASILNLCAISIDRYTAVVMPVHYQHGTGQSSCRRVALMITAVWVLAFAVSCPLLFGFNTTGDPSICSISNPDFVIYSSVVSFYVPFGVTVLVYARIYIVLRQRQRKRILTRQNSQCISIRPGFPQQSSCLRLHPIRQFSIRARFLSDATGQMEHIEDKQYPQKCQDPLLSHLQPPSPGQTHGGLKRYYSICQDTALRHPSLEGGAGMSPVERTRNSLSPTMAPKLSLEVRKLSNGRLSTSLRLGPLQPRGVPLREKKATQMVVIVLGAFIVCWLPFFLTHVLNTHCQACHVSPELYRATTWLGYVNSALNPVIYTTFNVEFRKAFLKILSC

Work on Oc1ccc2c(c1)C[C@@H]1[C@@H](CCCN1CCN1CCN(c3ccccc3)CC1)C2 (racemic) [(+/-)-cis-1-[2-(4-Phenylpiperazin-1-yl)ethyl]-1,2,3,4,4a,5,10,10a-octahydrobenzo[g]quinolin-8-ol] yielded a Ki (D(3) dopamine receptor) of 419 nM and a Ki (D(2) dopamine receptor) of 3330 nM.
